Values quoted from earlier work, collected in US11730745B1, “Kit and new method of treatment for skin basal cell and squamous cell carcinoma” (priority 2022, dated 2023).

Tested on: cancer
Conditions: additional treatment with Selenium

[Se] [Selenium]
Decrease of the frequency of cancer: more than 35%
